Data reported in patent US20260274814A1, “THIENYL COMPOUNDS FOR THE TREATMENT OF A CENTRAL NERVOUS SYSTEM DISEASE OR DISORDER” (Coreterra Therapeutics, Inc., priority 2023, published 2026).
Counter-ions that a name gives are not always drawn.

Tested on: mice
Assay: Neuropharmacological Assay (SmartCube): automated behavioral signature of compound-treated mice compared with a database of reference drug classes
Assay type: in vivo
Conditions: for minimal effective dose: Mus musculus, ip, read-out: MED; for minimal effective dose / MED: minimal effective dose: dose having 45% or more total activity in SmartCube, i.p., if only one dose tested, that dose is shown; for AG / AN / AP / AX / CE / HL / MS / PS / SH / UK / AD: SmartCube class probability, 3.0 mg/kg i.p., 15 min before test
Procedure, shortened: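 Dose-response work typically spanned 0.3–10 mpk, widened or narrowed to obtain a full curve, with i.p. administration 15 min pre-test. MED is defined as the dose producing ≥45% total SmartCube activity; single-dose entries list the tested dose.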

| SMILES | minimal effective dose | AG | AN | AP | AX | CE | HL | MS | PS | SH | UK | AD (hydrochloride, 3 mg/kg) | MED (hydrochloride) | AP (hydrochloride, 3 mg/kg) | UK (hydrochloride, 3 mg/kg) | MED | AD | AX (hydrochloride, 3 mg/kg) | CE (hydrochloride, 3 mg/kg) | PS (hydrochloride, 3 mg/kg) |
| --- | --- | --- | --- | --- | --- | --- | --- | --- | --- | --- | --- | --- | --- | --- | --- | --- | --- | --- | --- | --- |
| NC1CCc2c(C(F)(F)F)csc2C1 (single isomer, unassigned) [Compound 243, 3-(trifluoromethyl)-4,5,6,7-tetrahydrobenzothiophen-6-amine hydrochloride] | 3 mg/kg | ND (^ <4%) | ND (^ <4%) | ND (^ <4%) | ND (^ <4%) | ND (^ <4%) | ND (^ <4%) | ND (^ <4%) | ND (^ <4%) | ND (^ <4%) | ND (^ <4%) | ++ (≥24%) |  |  |  |  |  |  |  |  |
| NC1CCc2c(C(F)(F)F)csc2C1 (single isomer, unassigned) [Compound 244, 3-(trifluoromethyl)-4,5,6,7-tetrahydrobenzothiophen-6-amine hydrochloride] |  | ND (^ <4%) | ND (^ <4%) | ND (^ <4%) | ND (^ <4%) | ND (^ <4%) | ND (^ <4%) | ND (^ <4%) | ND (^ <4%) | ND (^ <4%) | ND (^ <4%) | ++++ (≥74%) | <3 mpk |  |  |  |  |  |  |  |
| CNC1(C)CCc2cc(C(F)(F)F)sc2C1.Cl (single isomer, unassigned) [Compound 245, N, 6-dimethyl-2-(trifluoromethyl)-5,7-dihydro-4H-benzothiophen-6-amine hydrochloride] | 3 mg/kg | ND (^ <4%) | ND (^ <4%) |  | ND (^ <4%) | ND (^ <4%) | ND (^ <4%) | ND (^ <4%) | ND (^ <4%) | ND (^ <4%) |  | ++ (≥24%) |  | ND (^ <4%) | + (≥4%) |  |  |  |  |  |
| CNC1(C)CCc2cc(C(F)(F)F)sc2C1.Cl (single isomer, unassigned) [Compound 246, N, 6-dimethyl-2-(trifluoromethyl)-5,7-dihydro-4H-benzothiophen-6-amine hydrochloride] |  | ND (^ <4%) | ND (^ <4%) |  | ND (^ <4%) | ND (^ <4%) | ND (^ <4%) | ND (^ <4%) | ND (^ <4%) | ND (^ <4%) |  | + (≥4%) |  | ++ (≥24%) | ++ (≥24%) | 3 mpk |  |  |  |  |
| CNC1CCc2scc(C3CC3)c2C1 (single isomer, unassigned) [Compound 249, 3-cyclopropyl-N-methyl-4,5,6,7-tetrahydrobenzothiophen-5-amine hydrochloride] | 3 mg/kg | ND (^ <4%) | ND (^ <4%) |  |  | ND (^ <4%) | ND (^ <4%) | ND (^ <4%) | ND (^ <4%) | ND (^ <4%) |  |  |  | ND (^ <4%) | ++ (≥24%) |  | ND (^ <4%) | ND (^ <4%) |  |  |
| CNC1CCc2scc(C3CC3)c2C1 (single isomer, unassigned) [Compound 250, 3-cyclopropyl-N-methyl-4,5,6,7-tetrahydrobenzothiophen-5-amine hydrochloride] |  | ND (^ <4%) | ND (^ <4%) |  |  | ND (^ <4%) | ND (^ <4%) | ND (^ <4%) | ND (^ <4%) | ND (^ <4%) |  |  |  | + (≥4%) | ND (^ <4%) | 3 mpk | ND (^ <4%) | ++++ (≥74%) |  |  |
| CCc1csc2c1CC(NC)CC2 (single isomer, unassigned) [Compound 251, 3-ethyl-N-methyl-4,5,6,7-tetrahydrobenzothiophen-5-amine hydrochloride] | > 3 mg/kg | ND (^ <4%) | ND (^ <4%) |  | ND (^ <4%) |  | ND (^ <4%) | ND (^ <4%) |  | ND (^ <4%) |  |  |  | ND (^ <4%) | ++ (≥24%) |  | ND (^ <4%) |  |  |  |
| CCc1csc2c1CC(NC)CC2 (single isomer, unassigned) [Compound 252, 3-ethyl-N-methyl-4,5,6,7-tetrahydrobenzothiophen-5-amine hydrochloride] |  | ND (^ <4%) | ND (^ <4%) |  | ND (^ <4%) |  | ND (^ <4%) | ND (^ <4%) |  | ND (^ <4%) |  |  | 3 mpk | + (≥4%) | +++ (≥49%) |  | ND (^ <4%) |  | ND (^ <4%) | ND (^ <4%) |
| NC1CCc2scc(C(F)(F)F)c2C1 (single isomer, unassigned) [Compound 254, 3-(trifluoromethyl)-4,5,6,7-tetrahydrobenzothiophen-5-amine hydrochloride] | > 3 mg/kg | ND (^ <4%) | ND (^ <4%) | ND (^ <4%) | ND (^ <4%) | ND (^ <4%) | ND (^ <4%) | ND (^ <4%) | ND (^ <4%) | ND (^ <4%) |  |  |  |  | + (≥4%) |  | ND (^ <4%) |  |  |  |
| NC1CCc2scc(C(F)(F)F)c2C1 (single isomer, unassigned) [Compound 255, 3-(trifluoromethyl)-4,5,6,7-tetrahydrobenzothiophen-5-amine hydrochloride] |  | ND (^ <4%) | ND (^ <4%) | ND (^ <4%) | ND (^ <4%) | ND (^ <4%) | ND (^ <4%) | ND (^ <4%) | ND (^ <4%) | ND (^ <4%) |  |  |  |  | ND (^ <4%) | >3 mpk | ND (^ <4%) |  |  |  |
| CNC1CCc2sc(-c3ccccc3)cc2C1.Cl (single isomer, unassigned) [Compound 256, N-methyl-2-phenyl-4,5,6,7-tetrahydrobenzothiophen-5-amine hydrochloride] | > 3 mg/kg | ND (^ <4%) | ND (^ <4%) | ND (^ <4%) | ND (^ <4%) | ND (^ <4%) | ND (^ <4%) | ND (^ <4%) | ND (^ <4%) | ND (^ <4%) |  |  |  |  | + (≥4%) |  | ND (^ <4%) |  |  |  |
| CNC1CCc2sc(-c3ccccc3)cc2C1.Cl (single isomer, unassigned) [Compound 257, N-methyl-2-phenyl-4,5,6,7-tetrahydrobenzothiophen-5-amine hydrochloride] |  | ND (^ <4%) | ND (^ <4%) | ND (^ <4%) | ND (^ <4%) | ND (^ <4%) | ND (^ <4%) | ND (^ <4%) | ND (^ <4%) | ND (^ <4%) |  |  |  |  | ++ (≥24%) | >3 mpk | ND (^ <4%) |  |  |  |
| CNC1COc2csc(C(F)(F)F)c2C1 (single isomer, unassigned) [Compound 258, N-methyl-5-(trifluoromethyl)-3,4-dihydro-2H-thieno[3,4-b]pyran-3-amine hydrochloride] | > 3 mg/kg | ND (^ <4%) | ND (^ <4%) | ND (^ <4%) | ND (^ <4%) | ND (^ <4%) | ND (^ <4%) | ND (^ <4%) | ND (^ <4%) | ND (^ <4%) |  |  |  |  | + (≥4%) |  | ND (^ <4%) |  |  |  |
| CNC1COc2csc(C(F)(F)F)c2C1 (single isomer, unassigned) [Compound 259, N-methyl-5-(trifluoromethyl)-3,4-dihydro-2H-thieno[3,4-b]pyran-3-amine hydrochloride] |  | ND (^ <4%) | ND (^ <4%) | ND (^ <4%) | ND (^ <4%) | ND (^ <4%) | ND (^ <4%) | ND (^ <4%) | ND (^ <4%) | ND (^ <4%) |  |  |  |  | ++ (≥24%) | >3 mpk | ND (^ <4%) |  |  |  |
| CNC1(C)CCc2c(C(F)(F)F)csc2C1.Cl (single isomer, unassigned) [Compound 261, N, 6-dimethyl-3-(trifluoromethyl)-5,7-dihydro-4H-benzothiophen-6-amine hydrochloride] | 3 mg/kg | ND (^ <4%) | ND (^ <4%) | ND (^ <4%) | ND (^ <4%) | ND (^ <4%) | ND (^ <4%) | ND (^ <4%) | ND (^ <4%) | ND (^ <4%) |  | +++ (≥49%) |  |  | + (≥4%) |  |  |  |  |  |
| CNC1(C)CCc2c(C(F)(F)F)csc2C1.Cl (single isomer, unassigned) [Compound 262, N, 6-dimethyl-3-(trifluoromethyl)-5,7-dihydro-4H-benzothiophen-6-amine hydrochloride] |  | ND (^ <4%) | ND (^ <4%) | ND (^ <4%) | ND (^ <4%) | ND (^ <4%) | ND (^ <4%) | ND (^ <4%) | ND (^ <4%) | ND (^ <4%) |  | ++ (≥24%) | >3 mpk |  | ND (^ <4%) |  |  |  |  |  |
